Read-outs that look alike come from different tables or passages of the source.
Assays:
PKC delta = target: T1, PKC delta (Homo sapiens, UniProt Q05655); test: PKC delta Assay (384-well time resolved fluorescence, IMAP TR-FRET); format: biochemical; settings: selectivity for PKC-theta over PKC-delta
T1 construct: purchased Invitrogen
Method: PKC delta Assay. A 384-well time resolved fluorescence assay was used to monitor PKC delta activity. The PKC delta assay was run in the following assay buffer: 50 mM HEPES pH 7.6, 10 mM MgCl2, 1 mM DTT, 0.01% Triton X-100, 0.01% BSA and 0.1 mM EDTA. To initiate the reaction, 200 nM of Fam-labeled S6-derived peptide (Molecular Devices) and 10 μM of ATP were mixed with 1.5 nM of PKC delta (Invitrogen), for a total assay volume of 25 μL in each well. The assay was incubated at room temperature for 2 hours and terminated using a 60 μL/well mixture of Detection Binding Solution: 70% IMAP Progressive Binding Buffer A, 30% IMAP Progressive Binding Buffer B, 1:600 Progressive Binding Reagent, and 1:400 TR-FRET Tb Donor (Molecular Devices). The assay plates were then incubated overnight at room temperature and read on the Perkin-Elmer Envision Reader.

His-PKC-theta = target: T2, His-PKC-theta (Homo sapiens, UniProt Q04759); test: PKC-theta Assay (384-well time resolved fluorescence, IMAP TR-FRET); format: biochemical; settings: read-out: Act. Level (IC50 in the PKC-theta Assay)
T2 construct: His; purchased Invitrogen
T2 sequence (Q04759 whole entry): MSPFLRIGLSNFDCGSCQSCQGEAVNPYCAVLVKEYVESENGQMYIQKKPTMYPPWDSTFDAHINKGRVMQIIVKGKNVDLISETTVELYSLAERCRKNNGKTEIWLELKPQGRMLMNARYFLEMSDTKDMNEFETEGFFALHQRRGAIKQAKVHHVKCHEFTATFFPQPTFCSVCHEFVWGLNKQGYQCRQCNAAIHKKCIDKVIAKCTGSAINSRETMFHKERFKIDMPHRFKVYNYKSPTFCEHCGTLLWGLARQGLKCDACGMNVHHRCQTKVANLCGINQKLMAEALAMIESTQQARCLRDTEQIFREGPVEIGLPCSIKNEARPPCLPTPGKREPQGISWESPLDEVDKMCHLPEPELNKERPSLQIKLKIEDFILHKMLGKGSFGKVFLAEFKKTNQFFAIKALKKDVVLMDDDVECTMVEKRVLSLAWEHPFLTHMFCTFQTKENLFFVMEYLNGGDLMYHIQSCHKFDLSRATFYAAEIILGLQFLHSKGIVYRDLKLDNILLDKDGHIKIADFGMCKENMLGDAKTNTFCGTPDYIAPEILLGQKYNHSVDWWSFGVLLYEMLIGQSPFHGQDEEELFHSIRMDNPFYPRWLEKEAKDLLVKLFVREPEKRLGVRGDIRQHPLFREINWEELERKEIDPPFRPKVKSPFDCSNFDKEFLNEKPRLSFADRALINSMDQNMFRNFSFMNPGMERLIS
Outline: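 Enzyme at 142 pM phosphorylated 200 nM Fam-S6 peptide with 10 μM ATP in 50 mM HEPES pH 7.6, 10 mM MgCl2, 1 mM DTT for 2 h at room temperature. Product was detected after overnight incubation with IMAP binding reagent and Tb donor by time-resolved FRET.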

T1 sequence (Q05655 whole entry): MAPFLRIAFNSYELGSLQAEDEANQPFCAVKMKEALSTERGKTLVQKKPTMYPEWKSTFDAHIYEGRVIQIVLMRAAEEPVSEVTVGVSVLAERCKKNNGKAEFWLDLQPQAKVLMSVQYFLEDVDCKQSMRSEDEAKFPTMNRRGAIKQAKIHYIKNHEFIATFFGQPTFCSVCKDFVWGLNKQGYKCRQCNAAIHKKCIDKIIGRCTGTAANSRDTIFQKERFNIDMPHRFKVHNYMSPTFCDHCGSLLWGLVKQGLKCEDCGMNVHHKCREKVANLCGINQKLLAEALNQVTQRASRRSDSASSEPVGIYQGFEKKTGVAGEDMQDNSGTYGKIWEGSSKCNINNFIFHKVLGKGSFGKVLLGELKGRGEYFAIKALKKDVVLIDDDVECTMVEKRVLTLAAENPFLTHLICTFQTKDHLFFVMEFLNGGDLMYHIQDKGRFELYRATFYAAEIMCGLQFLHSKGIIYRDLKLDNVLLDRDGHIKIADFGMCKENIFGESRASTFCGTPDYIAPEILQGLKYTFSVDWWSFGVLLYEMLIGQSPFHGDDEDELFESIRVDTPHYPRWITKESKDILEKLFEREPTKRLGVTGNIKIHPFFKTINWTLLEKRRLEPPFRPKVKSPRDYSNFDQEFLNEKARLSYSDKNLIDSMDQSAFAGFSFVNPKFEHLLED

Compound	Sel. Level (ratio of IC50 PKC-delta/IC50 PKC-theta) (PKC delta)	IC50 (His-PKC-theta) [nM]	IC50 (His-PKC-theta; Table 2) [nM]
CC1(C)C[C@H](Nc2nc(NCCc3ccc4ccccc4n3)ncc2C#N)CC[C@@H]1O [Cmpd 256]	G (selectivity between 5- and 20-fold (selectivity level G))	800 to 2000	
CCOc1cccc(CCNc2ncc(C#N)c(N[C@@H]3CC[C@H](O)C(C)(C)C3)n2)n1 [Cmpd 257]	G (selectivity between 5- and 20-fold (selectivity level G))	800 to 2000	
CC1(C)C[C@H](Nc2nc(NCCc3nc4ccccc4o3)ncc2C#N)CC[C@@H]1O [Cmpd 205]	H (selectivity level of 5-fold or less (selectivity level H))	2000 to 10000	
CCOc1cc(CCNc2ncc(C#N)c(N[C@@H]3CC[C@H](O)C(C)(C)C3)n2)ccn1 [Cmpd 330]	G (selectivity between 5- and 20-fold (selectivity level G))	100 to 800	
Cc1cc(C(F)(F)F)nn1CCNc1ncc(C#N)c(N[C@@H]2CC[C@H](O)C(C)(C)C2)n1 [Cmpd 210]	G (selectivity between 5- and 20-fold (selectivity level G))	800 to 2000	
Cc1cccnc1CCNc1ncc(C#N)c(N[C@@H]2CC[C@H](O)C(C)(C)C2)n1 [Cmpd 214]	H (selectivity level of 5-fold or less (selectivity level H))	2000 to 10000	
CC1(C)[C@@H](O)C[C@H]1Nc1nc(NCCc2c[nH]c3ncccc23)ncc1C#N [Cmpd 241]	G (selectivity between 5- and 20-fold (selectivity level G))	800 to 2000	
CC1(C)CC(Nc2nc(NCCc3c[nH]c4cccnc34)ncc2C#N)CC[C@@H]1O (some centres unmarked) [Cmpd 255]	H (selectivity level of 5-fold or less (selectivity level H))	2000 to 10000	
Cc1cccnc1CCNc1ncc(C#N)c(NC2C[C@H](O)C2(C)C)n1 (some centres unmarked) [Cmpd 224]	H (selectivity level of 5-fold or less (selectivity level H))	2000 to 10000	
CC1(C)C(O)C[C@H]1Nc1nc(NCCc2cnccn2)ncc1C#N (some centres unmarked) [Cmpd 226]	H (selectivity level of 5-fold or less (selectivity level H))	2000 to 10000	
CC1(C)[C@@H](O)C[C@H]1Nc1nc(NCCc2ccnc(C(F)(F)F)c2)ncc1C#N [Cmpd 273]	G (selectivity between 5- and 20-fold (selectivity level G))	800 to 2000	
CC1(C)[C@@H](Nc2nc(NCCC3C(=O)Nc4ccc(F)cc43)ncc2C#N)CCC[C@@H]1O (some centres unmarked) [Cmpd 313]	F (selectivity of between 20- and 100-fold (selectivity level F))	100 to 800	
CC1(C)C[C@H](Nc2nc(NCCc3ccc(CN4CCCC4=O)cc3)ncc2C#N)CC[C@@H]1O [Cmpd 52]			100 to 800
CC(F)(F)COc1ncncc1CNc1ncc(C#N)c(N[C@H]2C[C@@H](O)C2(C)C)n1 [Cmpd 99]		100 to 800	
COc1cc(CCNc2ncc(C#N)c(N[C@@H]3CC[C@H](O)C(C)(C)C3)n2)ccc1O [Cmpd 95]			100 to 800
CC1(C)[C@@H](O)C[C@H]1Nc1nc(NCCc2cc(C(F)(F)F)cc(C(F)(F)F)c2)ncc1C#N [Cmpd 125]			100 to 800
CC1(C)[C@@H](O)C[C@H]1Nc1nc(NCCc2ccc(-n3cccn3)cc2)ncc1C#N [Cmpd 48]			< 100
CC(F)(F)COc1cccc(CCNc2ncc(C#N)c(N[C@@H]3CC[C@H](O)C(C)(C)C3)n2)c1 [Cmpd 155]			100 to 800
CC(C)c1ncncc1CNc1ncc(C#N)c(N[C@@H]2C[C@H](O)C2(C)C)n1 [Cmpd 35]		< 100	
CC1(C)[C@@H](CO)C[C@H]1Nc1nc(NCc2c[n+]([O-])ccc2C(F)(F)F)ncc1C#N [Cmpd 53]		< 100	
N#Cc1cnc(NCc2cnccc2C(F)(F)F)nc1NC1CC(O)C1 (centres unmarked) [Cmpd 90]		< 100	
CC1(C)[C@@H](N)C[C@H]1Nc1nc(NCCc2cccc(Cl)c2)ncc1C#N [Cmpd 160]			800 to 2000
CC1(C)[C@@H](O)C[C@H]1Nc1nc(NCCc2ccc(CN3CCCC3=O)cc2)ncc1C#N [Cmpd 123]			800 to 2000
CC1(C)C[C@H](Nc2nc(NCCc3cccc(S(N)(=O)=O)c3)ncc2C#N)CC[C@@H]1O [Cmpd 172]			100 to 800
CC1(C)C[C@H](Nc2nc(NCCc3ccc(C#N)c(F)c3)ncc2C#N)CC[C@@H]1O [Cmpd 148]			100 to 800

Compound	Sel. Level (ratio of IC50 PKC-delta/IC50 PKC-theta) (PKC delta)	IC50 (His-PKC-theta) [nM]	IC50 (His-PKC-theta; Table 2) [nM]
CC1(C)C[C@H](Nc2nc(NCCc3ccc(-n4cccn4)c(Cl)c3)ncc2C#N)CC[C@@H]1O [Cmpd 181]			< 100
CC1(C)C[C@H](Nc2nc(NCCc3ccc(C#N)cc3)ncc2C#N)CC[C@@H]1O [Cmpd 37]			100 to 800
CC1(C)[C@@H](O)C[C@H]1Nc1nc(NCCc2ccccn2)ncc1C#N [Cmpd 187]		2000 to 10000	
COc1cccc2c(CCNc3ncc(C#N)c(NC4CCC(O)CC4)n3)c[nH]c12 (centres unmarked) [Cmpd 166]		800 to 2000	
CC1(C)C[C@H](Nc2nc(NCCc3ccc(C#N)cc3)ncc2C(F)(F)F)CC[C@@H]1O [Cmpd 161]			100 to 800
CC1(C)[C@@H](CO)C[C@H]1Nc1nc(NCc2cnccc2C(F)(F)F)ncc1C#N [Cmpd 64]		< 100	
CCOc1ncncc1CNc1ncc(C#N)c(N[C@@H]2C[C@H](O)C2(C)C)n1 [Cmpd 58]		< 100	
N#Cc1cnc(NCc2cnccc2C(F)(F)F)nc1N[C@H]1CC[C@@H](O)CC1 [Cmpd 75]		< 100	
Cc1nnnn1-c1ccc(CCNc2ncc(C#N)c(N[C@@H]3CC[C@H](O)C(C)(C)C3)n2)cc1 [Cmpd 167]			100 to 800
CC1(C)C[C@H](Nc2nc(NCCc3ccccc3O)ncc2C#N)CC[C@@H]1O [Cmpd 67]			100 to 800
CC1(C)C[C@H](Nc2nc(NCC(=O)c3ccc(F)cc3F)ncc2C#N)CC[C@@H]1O [Cmpd 66]			100 to 800
CC1(C)[C@@H](O)C[C@H]1Nc1nc(NCc2cncnc2C(F)(F)F)ncc1C#N [Cmpd 61]		< 100	
CC1(C)[C@@H](O)C[C@H]1Nc1nc(NCCc2ccc(C#N)c(Br)c2)ncc1C#N [Cmpd 145]			100 to 800
N#Cc1cnc(NCc2cncnc2C(F)(F)F)nc1N[C@H]1CC[C@@H](O)CC1 [Cmpd 96]		100 to 800	
CC1(C)C[C@H](Nc2nc(NCc3cncnc3C(F)(F)F)ncc2C#N)CC[C@H]1O [Cmpd 159]		100 to 800	
C[C@@H]1CC[C@H](Nc2nc(NCc3cnccc3C(F)(F)F)ncc2C#N)C[C@H]1O [Cmpd 87]		< 100	
Cc1ncc(-c2ccc(CCNc3ncc(C#N)c(N[C@@H]4C[C@H](O)C4(C)C)n3)cc2)s1 [Cmpd 124]			100 to 800
COc1cccc(CCNc2ncc(C#N)c(N[C@@H]3C[C@H](O)C3(C)C)n2)c1OC [Cmpd 105]			800 to 2000
CC1(C)C[C@H](Nc2nc(NCCc3ccc(Cl)cc3Cl)ncc2C#N)CC[C@@H]1O [Cmpd 100]			100 to 800
CC1(C)C[C@H](Nc2nc(NCc3cncnc3C(F)(F)F)ncc2C(F)(F)F)CC[C@@H]1O [Cmpd 30]		< 100	
CC1(C)[C@H](O)C[C@H]1Nc1nc(NCc2c[n+]([O-])ccc2C(F)(F)F)ncc1C(F)(F)F [Cmpd 105]		100 to 800	
CNC(=O)[C@H]1CC[C@@H](Nc2nc(NCc3cnccc3C(F)(F)F)ncc2C(F)(F)F)CC1 [Cmpd 17]		< 100	
COc1ccc(CCNc2ncc(C#N)c(N[C@@H]3C[C@H](O)C3(C)C)n2)cc1 [Cmpd 103]			100 to 800
CCc1ncncc1CNc1ncc(C#N)c(N[C@H]2C[C@@H](O)C2(C)C)n1 [Cmpd 123]		100 to 800	
CC1(C)C[C@H](Nc2nc(NCC(O)c3ccc(O)cc3)ncc2C#N)CC[C@@H]1O (some centres unmarked) [Cmpd 80]			2000 to 10000
